Test results as given in US8618111B2, “5-alkynyl-pyrimidines” (Boehringer Ingelheim International GmbH, priority 2010, dated 2013).

Legend:
mTOR = mTOR (Homo sapiens (Human), UniProt P42345); assay: mTOR kinase activity assay (phosphorylation status of mTOR substrate 4E-BP1; TR-FRET); assay type: biochemical; settings: GFP-4E-BP1 substrate, 8 μM ATP
Description: mTOR Kinase Activity Assay
(Phosphorylation Status of mTOR Substrate 4E-BP1; TR-FRET)
The mTOR kinase TR-FRET assay utilizes a physiologically relevant protein substrate for mTOR (4E-BP1, labeled with an acceptor fluorophore (Green Fluorescent Protein) and paired with a corresponding Tb-labeled phospho-specific antibody.
The assay itself is divided into two phases: the reaction phase and the detection phase. In the reaction phase, all components required for the kinase reaction are added to the well, including the labeled protein substrate. The reaction is allowed to incubate for 60 minutes. After the reaction, EDTA is added to stop the kinase reaction, and terbium-labeled antibody is added to bind phosphorylated product. Because the terbium chelate is stable at the EDTA concentrations used to stop a kinase assay, the antibody and EDTA can be pre-mixed prior to addition to minimize pipetting steps. Binding of the terbium labeled antibody to the fluorophore-labeled phosphorylated product brings the terbium and GFP into proximity, resulting in an increase in TR-FRET. In the presence of an inhibitor, formation of phosphorylated product is reduced, and the TR-FRET value is decreased.
• GFP-4E-BP1 substrate; Invitrogen order no. PV4759 • Lanthascreen Tb-anti-p4E-BP1 (pThr46) Antibody Kit; Invitrogen order no. PV4758 • FRAP1 (mTOR) kinase; Invitrogen order no.
400 nM GFP-4E-BP1, 8 μM ATP, ˜150 ng/mL mTOR, 50 mM HEPES pH 7.5, 0.01% Polysorbate 20, 1 mM EGTA, 10 mM MnCl2, and variable amounts of test compounds.
Note: Thaw and keep mTOR, the substrate, ATP, and the antibody on ice prior to making working dilutions. Working dilutions of these components can be kept at room temperature for short periods of time the day of use. • 1. Add 2 ml of 5× Assay Buffer to 8 ml water to prepare 10 ml of 1× Assay Buffer, wherein the concentration of 1× Assay Buffer is 50 mM HEPES pH 7.5, 0.01% Polysorbate 20, 1 mM EGTA, and 10 mM MnCl2. • 2. Prepare Antibody/EDTA Solution by first adding 2.75 μl of Tb-anti p4E-BP1 Antibody to 2397 μl of LanthaScreen™ TR-FRET Dilution Buffer. Then, add 100 μl of 0.5 M EDTA. • 3. […] Then, add 1.6 μl of mTOR (0.45 mg/mL). • 4. Prepare ATP Solution by adding 3.2 μl of 10 mM ATP to 1997 μl of 1× Assay Buffer. Serial Dilution of Inhibitors (16 Point Curve)
Inhibitors are serially diluted in DMSO, then diluted to a 4× working concentration with 1× Assay Buffer. • 1. Dispense 40 μl of DMSO to two adjacent columns of a 96 well plate per compound (e.g. columns 1 and 2). • 2. Add 10 μl of inhibitor stock (10 mM) to the first well of the first column (A1) and mix. • 3. Remove 10 μl from A1 and transfer to the adjacent well in the next column (B1) and mix. • 4. Remove 10 μl from B1 and transfer to the next well in the first column (B2) and mix. • 5. […] Remove 4 μl of diluted compounds and add to 96 μl of 1× Assay Buffer in a 96-well plate making 4× compound dilutions. Kinase Reaction • 1. Add 2.5 μl of 4X compound dilutions to a 384-well plate. • 2. […] Preincubate for […] at RT (shaker). • 5. Add 5 μl of ATP Solution to all wells to start reactions. • 6. Shake the assay plate on a plate shaker for 30 seconds. • 7. Incubate the assay plate for one hour at room temperature (20-25° C.). Stop Step and Fluorescence Detection • 1. Add 10 μl of Antibody/EDTA Solution to each well in columns 1-9. • 2. Shake the assay plate on a plate shaker for 30 seconds. • 3. Incubate the assay plate for one hour at room temperature (20-25° C.). • 4. Measure the GFP (FRET) and terbium (reference) emission signals on a fluorescence plate reader (e.g. Perkin Elmer Envision). Data Analysis • 1. Calculate the emission ratio for each sample by dividing the GFP (FRET) signal by the terbium (reference) signal. • 2.

PI3Kalpha = PI3Kalpha (Homo sapiens (Human), UniProt P42336); assay: Inhibition of PI3Kalpha-induced PIP-2 phosphorylation (filter-binding assay); assay type: biochemical; settings: 33P-ATP
Description: Inhibition of PI3Kalpha-Induced PIP-2 Phosphorylation
Method Type: Filter-Binding-Assay
Aliquoted in desired amounts and stored at −80° C. Final assay concentration 25 ng/well.

[1] = system: PC3 (human prostate carcinoma cell line) cells; assay: PC3 proliferation test; assay type: cell-based; settings: PC-3, 72 h, 3 days incubation, DNA dye fluorescence
Description: The test is based on measurement of cellular DNA content via fluorescent dye binding. Because cellular DNA content is highly regulated, it is closely proportional to cell number. The extent of proliferation is determined by comparing cell counts for samples treated with drugs with untreated controls.
PC3 (human prostate carcinoma cell line) cells are sown in microtitre plates and incubated overnight in culture medium at 37° C. and 5% CO2. The test substances are diluted stepwise and added to the cells such that the total volume is 200 μL/well. Cells to which diluent, but not substance, is added serve as controls.

PI3Kalpha, sequence (P42336 whole entry, species assumed): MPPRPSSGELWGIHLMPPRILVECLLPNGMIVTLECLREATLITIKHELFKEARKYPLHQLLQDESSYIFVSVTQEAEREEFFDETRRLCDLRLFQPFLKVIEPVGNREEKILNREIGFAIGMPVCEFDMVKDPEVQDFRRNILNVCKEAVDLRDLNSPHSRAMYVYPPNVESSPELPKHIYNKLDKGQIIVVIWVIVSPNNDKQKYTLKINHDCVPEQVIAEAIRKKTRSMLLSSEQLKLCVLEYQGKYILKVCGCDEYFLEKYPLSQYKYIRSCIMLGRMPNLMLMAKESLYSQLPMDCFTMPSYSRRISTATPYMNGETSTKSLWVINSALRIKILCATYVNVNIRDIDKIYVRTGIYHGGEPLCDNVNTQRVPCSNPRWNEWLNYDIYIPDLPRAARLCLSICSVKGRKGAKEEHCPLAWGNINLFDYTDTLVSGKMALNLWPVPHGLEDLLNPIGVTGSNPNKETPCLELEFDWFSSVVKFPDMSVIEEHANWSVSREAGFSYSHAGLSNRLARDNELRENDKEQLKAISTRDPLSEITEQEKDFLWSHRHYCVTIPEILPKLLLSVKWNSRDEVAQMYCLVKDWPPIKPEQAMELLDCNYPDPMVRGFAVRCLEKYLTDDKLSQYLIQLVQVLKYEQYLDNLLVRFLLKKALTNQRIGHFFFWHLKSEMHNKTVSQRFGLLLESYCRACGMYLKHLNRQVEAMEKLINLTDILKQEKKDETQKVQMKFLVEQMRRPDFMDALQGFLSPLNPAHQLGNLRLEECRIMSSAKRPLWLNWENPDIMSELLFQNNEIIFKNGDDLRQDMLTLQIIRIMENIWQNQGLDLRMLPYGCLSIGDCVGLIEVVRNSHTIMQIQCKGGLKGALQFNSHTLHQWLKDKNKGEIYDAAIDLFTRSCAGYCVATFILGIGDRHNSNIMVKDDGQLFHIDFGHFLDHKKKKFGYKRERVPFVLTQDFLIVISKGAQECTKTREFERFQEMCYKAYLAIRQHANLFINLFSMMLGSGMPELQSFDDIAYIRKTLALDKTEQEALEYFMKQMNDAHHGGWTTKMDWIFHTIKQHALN
PI3Kalpha, sequence (P27986 whole entry partner, species assumed): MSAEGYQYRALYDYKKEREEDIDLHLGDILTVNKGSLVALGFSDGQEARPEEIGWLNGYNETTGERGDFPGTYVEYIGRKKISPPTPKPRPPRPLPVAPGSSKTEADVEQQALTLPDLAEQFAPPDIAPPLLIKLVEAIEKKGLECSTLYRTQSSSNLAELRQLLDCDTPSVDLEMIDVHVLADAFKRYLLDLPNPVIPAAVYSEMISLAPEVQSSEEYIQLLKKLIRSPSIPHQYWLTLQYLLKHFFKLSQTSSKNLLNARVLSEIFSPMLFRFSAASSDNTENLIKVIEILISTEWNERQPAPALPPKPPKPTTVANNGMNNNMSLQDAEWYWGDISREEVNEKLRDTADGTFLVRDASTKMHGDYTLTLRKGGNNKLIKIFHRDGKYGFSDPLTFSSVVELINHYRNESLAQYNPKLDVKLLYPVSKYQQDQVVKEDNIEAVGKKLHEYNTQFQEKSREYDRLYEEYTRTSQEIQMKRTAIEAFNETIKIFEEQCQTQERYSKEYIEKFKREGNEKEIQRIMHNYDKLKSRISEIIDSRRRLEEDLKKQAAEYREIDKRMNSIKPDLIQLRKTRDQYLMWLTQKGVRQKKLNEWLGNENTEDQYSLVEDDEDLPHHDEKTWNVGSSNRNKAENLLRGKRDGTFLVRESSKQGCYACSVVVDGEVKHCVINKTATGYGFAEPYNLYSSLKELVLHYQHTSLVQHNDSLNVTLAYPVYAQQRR
mTOR, sequence (P42345 1360-2549): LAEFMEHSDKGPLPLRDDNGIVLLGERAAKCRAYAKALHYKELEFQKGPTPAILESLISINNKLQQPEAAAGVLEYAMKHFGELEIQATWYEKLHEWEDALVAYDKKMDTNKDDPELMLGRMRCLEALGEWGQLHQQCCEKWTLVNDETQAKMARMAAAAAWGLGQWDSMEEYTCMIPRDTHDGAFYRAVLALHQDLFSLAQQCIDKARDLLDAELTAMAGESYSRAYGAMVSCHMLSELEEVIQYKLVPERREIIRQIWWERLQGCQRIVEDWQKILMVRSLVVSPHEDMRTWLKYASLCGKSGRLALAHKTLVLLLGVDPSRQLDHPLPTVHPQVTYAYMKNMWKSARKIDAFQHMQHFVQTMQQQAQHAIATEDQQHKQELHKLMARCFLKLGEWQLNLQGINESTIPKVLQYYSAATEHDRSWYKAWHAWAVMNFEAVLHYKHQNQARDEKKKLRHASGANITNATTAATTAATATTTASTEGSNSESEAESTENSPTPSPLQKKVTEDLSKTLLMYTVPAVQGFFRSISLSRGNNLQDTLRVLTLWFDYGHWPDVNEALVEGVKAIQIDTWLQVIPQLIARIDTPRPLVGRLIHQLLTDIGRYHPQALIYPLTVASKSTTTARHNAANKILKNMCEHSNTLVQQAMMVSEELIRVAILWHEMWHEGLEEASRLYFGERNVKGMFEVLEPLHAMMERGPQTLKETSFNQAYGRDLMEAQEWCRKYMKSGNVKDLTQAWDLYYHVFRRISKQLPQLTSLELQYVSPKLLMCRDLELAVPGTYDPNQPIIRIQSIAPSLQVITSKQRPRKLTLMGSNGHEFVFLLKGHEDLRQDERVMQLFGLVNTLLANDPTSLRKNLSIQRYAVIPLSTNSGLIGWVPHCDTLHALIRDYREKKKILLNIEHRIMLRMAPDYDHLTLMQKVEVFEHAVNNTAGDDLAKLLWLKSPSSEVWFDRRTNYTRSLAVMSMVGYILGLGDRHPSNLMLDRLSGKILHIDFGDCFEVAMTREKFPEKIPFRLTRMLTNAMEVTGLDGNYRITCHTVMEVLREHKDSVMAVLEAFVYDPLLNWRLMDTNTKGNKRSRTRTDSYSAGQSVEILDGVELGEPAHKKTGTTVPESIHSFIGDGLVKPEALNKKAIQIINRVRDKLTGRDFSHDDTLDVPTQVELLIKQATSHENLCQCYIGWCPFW

Structure (SMILES) | IC50 (mTOR) [nM] | IC50 PI3Ka (PI3Kalpha) [nM] | EC50 [1] [nM]
CC(=O)NC1CCN(c2ncnc(C)c2C#Cc2ccc(N)nc2)CC1 [Example B-25] | 42 | 78 | 267
Cc1ncnc(N2CCC3(CC2)OCCO3)c1C#Cc1ccc(N)nc1 [Example B-26] | 10 | 60 | 27
Cc1ncnc(N2CCC(O)(c3ccccc3)CC2)c1C#Cc1ccc(N)nc1 [Example B-27] | 23 | 22 | 56
Cc1ncnc(N2CCC(O)(Cc3ccccc3)CC2)c1C#Cc1ccc(N)nc1 [Example B-28] | 50 | 70 | 195
CCc1ncnc(N2CCC(CCO)CC2)c1C#Cc1ccc(C)nc1 [Example B-29] | 67 | 88 | 234
Cc1ncnc(N2CCC(CCO)CC2)c1C#Cc1ccc(N)nc1 [Example B-30] | 9 | 14 | 49
CCc1ncnc(N2CCC(O)(C(F)(F)F)CC2)c1C#Cc1ccc(C)nc1 [Example B-31] | 37 | 172 | 80
Cc1ncnc(N2CCC(O)(C(F)(F)F)CC2)c1C#Cc1ccc(N)nc1 [Example B-32] | 3 | 24 | 15
CCc1ncnc(N2CCC(O)(CC)CC2)c1C#Cc1ccc(C)nc1 [Example B-33] | 51 | 102 | 152
CCc1ncnc(N2CCC(O)(C(C)C)CC2)c1C#Cc1ccc(C)nc1 [Example B-35] | 23 | 172 | 168
CCc1ncnc(N2CCC(OCCOC)CC2)c1C#Cc1ccc(N)nc1 [Example B-37] | 36 | 89 | 148
COC1CCN(c2ncnc(C)c2C#Cc2ccc(N)nc2)CC1 [Example B-38] | 18 | 37 | 122
CCc1ncnc(N2CCC(COC)CC2)c1C#Cc1ccc(N)nc1 [Example B-39] | 19 | 87 | 50
CCc1ncnc(N2CCN(C(C)=O)CC2)c1C#Cc1ccc(N)nc1 [Example B-40] | 32 | 62 | 187
CCc1ncnc(N2CCC(C(F)(F)F)CC2)c1C#Cc1ccc(N)nc1 [Example B-41] | 9 | 201 | 19
CCc1ncnc(N2CCC(F)(F)CC2)c1C#Cc1ccc(N)nc1 [Example B-42] | 31 | 196 | 105
CCc1ncnc(N2CCN(S(C)(=O)=O)CC2)c1C#Cc1ccc(N)nc1 [Example B-43] | 16 | 88 | 139
CCc1ncnc(N2CCC(OC)CC2)c1C#Cc1ccc(N)nc1 [Example B-44] | 10 | 58 | 76
CCc1ncnc(N2CCC(CO)CC2)c1C#Cc1ccc(N)nc1 [Example B-45] | 10 | 58 | 46
CCc1ncnc(N2CCC(C)(O)CC2)c1C#Cc1ccc(N)nc1 [Example B-47] | 5 | 36 | 46
CCc1ncnc(N2CCC(O)CC2)c1C#Cc1ccc(N)nc1 [Example B-48] | 14 | 99 | 141
CCc1ncnc(N2CCCC(CO)C2)c1C#Cc1ccc(N)nc1 (stereo not drawn) [Example B-49] | 28 | 73 | 124

Structure (SMILES) | IC50 (mTOR) [nM] | IC50 PI3Ka (PI3Kalpha) [nM] | EC50 [1] [nM]
CCc1ncnc(N2CCOC(C)(C)C2)c1C#Cc1ccc(N)nc1 [Example B-50] | 30 | 49 | 56
CCc1ncnc(N2CCN(C3CC3)CC2)c1C#Cc1ccc(N)nc1 [Example B-51] | 43 | 86 | 129
CCc1ncnc(N2CC[S+]([O-])CC2)c1C#Cc1ccc(N)nc1 [Example B-52] | 28 | 104 | 180
CCc1ncnc(N2CCS(=O)(=O)CC2)c1C#Cc1ccc(N)nc1 [Example B-53] | 12 | 380 | 142
CCc1ncnc(N2CCNC(=O)CC2)c1C#Cc1ccc(N)nc1 [Example B-54] | 14 | 133 | 211
CCc1ncnc(N2CCN(CCOC)CC2)c1C#Cc1ccc(N)nc1 [Example B-55] | 26 | 718 | 191
CCc1ncnc(N2CCN(C)CC2)c1C#Cc1ccc(N)nc1 [Example B-56] | 57 | 1551 | 268
CCc1ncnc(N2CCOCC2)c1C#Cc1ccc(N)nc1 [Example B-57] | 93 | 46 | 119
CCc1ncnc(N2CCCC2)c1C#Cc1ccc(N)nc1 [Example B-58] | 42 | 131 | 492
CCc1ncnc(N2CCC(C)(OC)CC2)c1C#Cc1ccc(N)nc1 [Example B-59] | 5 | 53 | 23
Cc1ncnc(N2CCC3(CC2)OCCCO3)c1C#Cc1ccc(N)nc1 [Example B-60] | 6 | 14 | 75
CCc1ncnc(N2CCC3(CC2)OCCCO3)c1C#Cc1ccc(N)nc1 [Example B-61] | 4 | 43 | 33
CCc1ncnc(N2CCC(=O)CC2)c1C#Cc1ccc(N)nc1 [Example B-62] | 28 | 109 | 105
CCc1ncnc(N2CCC(O)(C(C)C)CC2)c1C#Cc1ccc(N)nc1 [Example B-63] | 0.61 | 15 | 8
CCc1ncnc(N2CCC(O)C(C)C2)c1C#Cc1ccc(N)nc1 (stereo not drawn) [Example B-64] | 10 | 55 | 53
Cc1ncnc(N2CCC(O)(C(C)C)CC2)c1C#Cc1ccc(N)nc1 [Example B-66] | 5 | 51 | 24
Cc1ncnc(N2CCC(O)C(C)C2)c1C#Cc1ccc(N)nc1 (stereo not drawn) [Example B-67] | 43 | 90 | 174
CCc1ncnc(N2CCC(OC)CC2)c1C#Cc1ccc(C)nc1 [Example B-68] | 122 | 183 | 589
CCOC1CCN(c2ncnc(CC)c2C#Cc2ccc(C)nc2)CC1 [Example B-69] | 168 | 99 | 783
CCc1ncnc(N2CCC(O)CC2)c1C#Cc1ccc(C)nc1 [Example B-70] | 141 | 139 | 684
CCc1ncnc(N2CCCC(CO)C2)c1C#Cc1ccc(C)nc1 (stereo not drawn) [Example B-71] | 108 | 90 | 388
